Data set [1] concerns rat sciatic nerve. To be noted: cited from earlier work.
Data set [2] is described as follows: Single-dose pharmacokinetics in the rat. Type of data set: in vivo, Sprague-Dawley rat. On the procedure: Pharmacokinetics of V-10,367. To determine the appropriate daily dose of V-10,367 for administration to rats, single-dose pharmacokinetics of V-10,367 were evaluated in the rat following intravenous and subcutaneous dosing. […] Since these concentrations were sufficiently above the 10 nM concentration needed to cause neurite extension in vitro, a subcutaneous dose of 200 mg/kg twice daily was selected for subsequent experiments.

The test system of data set [3] is rat sciatic nerve. Briefly: Functional recovery after sciatic nerve crush. Type of data set: in vivo, Sprague-Dawley rats. On the procedure:
(§1) Animals and surgical procedure. Ten six-week-old Sprague-Dawley rats were anesthetized with 2% halothane, the right sciatic nerve exposed, and the nerve crushed twice (for a total of 30 sec using a No. 7 Dumont jeweler's forceps) at the level of the hip. The crush site was marked by tying a sterile 9-0 suture through the perineurial sheath.
(§2) Preparation and administration of V-10,367. V-10,367-HCl (molecular weight, 639.18) was dissolved in vehicle comprising 40% propylene glycol:10% ethanol:50% water. Fresh solutions were prepared at the time of each injection. Three rats received subcutaneous injections (200 mg/kg) every 12 hours (beginning immediately after the nerve crush; totaling 400 mg/kg/day) in the back of the neck using a 25 g needle. Control animals (n=3) received injections every 12 hours of vehicle only. An additional control group (n=3) received daily injections of saline. Animals were weighed daily and the weights plotted over the 18-day period of the study.
Two separate additional studies were performed. In the first study, three axotomized rats received a single daily subcutaneous injection (200 mg/kg) as above. In the second study, V-10,367 was delivered as to axotomized rats as a continuous infusion. Osmotic pumps (Alza, Palo Alto, Calif.) model 2ML2 filled with V-10,367-HCl (200 mg/ml) or vehicle (two per group) were implanted under the skin on the left side of the animal.
Behavioral assessment. Functional recovery was assessed in FK506-treated animals used for morphological study only. Animals were examined blindly by two investigators daily until the day of perfusion (18 days). […] To obtain records during walking, the hind feet were marked with tempera paint and the animals allowed to freely walk across a sheet of paper between 14-18 days. Toe spread during walking was defined as the distance between the first and fifth digits, measured to the nearest 0.5 mm; three foot prints were analyzed from each animal. This analysis represents a reliable and reproducible index of functional recovery which, unlike the sciatic nerve function index, is not influenced by how fast the animal walks (Walker et al., Restor. Neurol. Neurosci. 6:189-193, 1994).

The target in the next data set is FKBP-12 (Homo sapiens, UniProt P62942). Put plainly: FKBP-12 inhibition. Type of data set: biochemical. An excerpt:
Assays for inhibition of FKBP-12 rotamase activity are described in Harding et al. (Nature 341:758-760, 1989), Siekierka et al., Nature 341:755-757, 1989, and U.S. Pat. No. 5,654,332, for example. Chymotrypsin is able to cleave p-nitroanilide from the trans form of the artificial substrate N-succinyl-Ala-Ala-Pro-Phe-p-nitroanilide, but not from the cis form. The assays of Harding et al. and Siekierka et al. employ a reaction mixture that includes the cis form of N-succinyl-Ala-Ala-Pro-Phe-p-nitroanilide, FKBP-12, a test compound, and chymotrypsin, and spectrophotometrically measure the release of p-nitroanilide as a result of isomerization of the substrate.

Another data set relates to soleus nerve. Put plainly: Electron microscopic morphometry of axonal areas in soleus nerve after sciatic nerve crush. It counts as in vivo, Sprague-Dawley rats. As for the experimental part:
as §1
Preparation and administration of V-10,367. V-10,367-HCl (molecular weight, 639.18) was dissolved in vehicle comprising 40% propylene glycol:10% ethanol:50% water. Fresh solutions were prepared at the time of each injection. Three rats received subcutaneous injections (200 mg/kg) every 12 hours (beginning immediately after the nerve crush; totaling 400 mg/kg/day) in the back of the neck using a 25 g needle. Control animals (n=3) received injections every 12 hours of vehicle only. An additional control group (n=3) received daily injections of saline. […]
Electron microscopic analysis of axons. […] Axonal areas of both myelinated and unmyelinated fibers were determined by tracing the axolemma using a Houston Instrument HI-PAD digitizing tablet connected to an IBM XT computer with appropriate software (Bioquant IV, R&M biometrics, Nashville, Tenn.). […] For each group (i.e., 400 and 200 mg/kg/day V-10,367-treated and vehicle-treated), mean values and standard areas were calculated for the whole population of axons. […]

For data set [4] the following is noted: rat, in vivo, sc, 400 mg/kg/day. As for the experimental part:
as §2

In data set [5] the test system is SH-SY5Y human neuroblastoma cells. Briefly: Neurite outgrowth (neurite length) in NGF-treated SH-SY5Y cells. Type of data set: cell-based. To be noted: for Mean neurite length: mean ± SEM. On the procedure: Cell cultures. SH-SY5Y human neuroblastoma cells were maintained in DMEM medium (GIBCO) supplemented with 10% fetal calf serum (SIGMA), 50 IU>mL penicillin, and […] streptomycin (GIBCO) at 37° C. in 7% CO^2. Cells were plated in six-well plates at 1×10^6 cells/well and treated with […] aphidicolin (SIGMA). At five days, cells were washed, treated with nerve growth factor (NGF) (Boehringer Mannheim, Indianapolis, Ind.) at 10 ng/mL (to induce process outgrowth) in the presence or absence of V-10,367 (1, 10, or 100 nM) (Armistead et al., Acta Cryst., D51:522-528, 1995; FIG. 1). Media was changed at 96 hours and replaced with fresh media with or without the compounds (NGF and V-10,367) for an additional 72 hours (total time, 168 hours). All experiments were run in duplicate wells and repeated at least twice for reproducibility.
Light morphometry of neurite lengths. […] Neurite lengths were measured on photographic prints using a Houston Instrument HI-PAD digitizing tablet connected to an IBM XT computer with appropriate software (Bioquant IV, R&M Biometrics, Nashville, Tenn.); only those processes greater than two times the cell body length were measured. Data from identically treated wells were not different and were therefore combined. […] Histograms were compared using a Mann-Whitney U test, which makes no assumptions about the shape of the distribution.

The mark [6] stands for this setting: single intravenous dose 17.7 mg/kg.
Where [7] appears, read: subcutaneous injection 174 mg/kg.
Setting [8] is: continuous infusion 18 days via osmotic minipump.

Several values for one entry are separate records, joined by “and”; a condition that tells them apart may be missing. Equal entries are not always repeated. Marks after values point to notes of the source that are not given here.

Chain of FKBP-12 (P62942 whole entry, species assumed): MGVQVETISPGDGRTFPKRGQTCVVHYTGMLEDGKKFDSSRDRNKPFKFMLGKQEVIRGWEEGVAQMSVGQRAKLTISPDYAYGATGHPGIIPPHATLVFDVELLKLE

With `CC[C@@H]1/C=C(\C)[C@@H](O)[C@H](C)C[C@H](OC)[C@H]2O[C@@](O)(C(=O)C(=O)N3CCCC[C@H]3C(=O)O[C@H](/C(C)=C/[C@@H]3CC[C@@H](O)[C@H](OC)C3)[C@H](C)[C@@H](O)CC1=O)[C@H](C)C[C@@H]2OC` [L-685,818, 18-OH, 21-ethyl-FK506], the Functional recovery entry in the data set with rat sciatic nerve [1] (topical administration to the nerve crush site) is “accelerate functional recovery”.
The Cmax is the highest concentration seen after dosing. For the molecule `COc1cc(C(=O)C(=O)N2CCCC[C@H]2C(=O)OC(CCCc2ccccc2)CCCc2cccnc2)cc(OC)c1OC.Cl` (some centres unmarked) [V-10,367], the Average blood clearance in data set [2] (setting [6]) was found to be 84 mL/min/kg. Further, the Elimination half-life entry in data set [2] (setting [6]) is given as “about 1.3 hours”. Also, in data set [2] (setting [6]), the “Volume of distribution at steady state” value was 2.76 L/kg. Also, the “Average Cmax” value in data set [2] (setting [7]) came to 171 ng/mL. For the same molecule, the Cmax in data set [2] (setting [7]) was determined as 285 nM. Besides, the “Trough concentrations at 8 hours post-dose” value in data set [2] (subcutaneous injection 174 mg/kg, 174 mg/kg) is 27-252 ng/mL and 45-420 nM. In addition, the “Apparent half-life following subcutaneous administration” value in data set [2] (subcutaneous vs intravenous) is recorded as “prolonged”. Also, the “Toe spread: distance between the first and fifth digits” value in the data set on rat sciatic nerve [3] (axotomized side, n=3, vehicle 11.0±0.58, uninjured side 19.5±0.39) is given as 13.0±0.41 mm. Besides, the “Functional recovery compared to vehicle-treated controls” value in the data set on rat sciatic nerve [3] (setting [8]) is listed as “earlier functional recovery”. Further, in the data set with rat sciatic nerve [3] (oral gavage, rat sciatic nerve crush), the “Efficacy upon oral (gavage) administration” value was “effective”. Besides, the “Days until onset of ability to right the foot and move the toes (onset)” value in the data set on rat sciatic nerve [3] (s.c. V-10,367, n=3, mean ± SEM, vehicle 15.3±0.33) was 13.7 ± 0.33 days. Moreover, the “Days until ability to walk on hind feet and toes (walking)” value in the data set with rat sciatic nerve [3] (s.c. V-10,367, n=3, mean ± SEM, vehicle 16.3±0.33) was found to be 14 ± 0 days. Besides, the FKBP-12 inhibition entry at FKBP-12 is “potent FKBP-12 inhibitor”. The “Increase of mean axonal areas compared to vehicle” value with soleus nerve (18 days after axotomy, subcutaneous injections) turned out to be 50%. In addition, the “Increase of mean axonal calibers compared to vehicle” value in the data set with soleus nerve (setting [8]) is 40%. Moreover, the Tolerability entry in data set [4] was “well tolerated”. The Mean neurite length in data set [5] (1 nM V-10,367 + NGF 10 ng/mL, 96 h) is reported as 110 ± 2.2 μm; in data set [5] (1 nM V-10,367 + NGF 10 ng/mL, 168 h), 136 ± 5.8*^,Δ μm; in data set [5] (10 nM V-10,367 + NGF 10 ng/mL, 96 h), 138 ± 9.4 μm; in data set [5] (10 nM V-10,367 + NGF 10 ng/mL, 168 h), 148 ± 8.6*^,††,Δ μm; in data set [5] (100 nM V-10,367 + NGF 10 ng/mL, 96 h), 121 ± 6.0 μm; in data set [5] (100 nM V-10,367 + NGF 10 ng/mL, 168 h), 118 ± 4.2*^,† μm. In addition, the “Number of processes per cell or branching of cell processes” value in data set [5] (1-100 nM with NGF 10 ng/mL) is listed as “No change”. Moreover, in data set [5] (tested at 1, 10, 100 nM with NGF 10 ng/mL), the “Concentration of maximal effect on neurite length” value is given as 10 nM.
As to cyclosporin A, in the data set with rat sciatic nerve [1] (rat, in vivo), the “Nerve regeneration in the rat sciatic nerve following a crush injury” value is given as “does not increase nerve regeneration”.

Values taken from patent US7282340B2, “Methods for identifying an analog that promotes nerve regeneration” (Oregon Health Sciences University, priority 1997, dated 2007).
